Test results: ChEMBL document CHEMBL1909046, “DrugMatrix in vitro pharmacology data”

What was measured:
[1] = DRUGMATRIX: beta-Lactamase enzyme inhibition (substrate: Nitrocefin); parameters: species or system Bacillus cereus; conditions: Not Active = under 50% inhibition at 10 µM
[2] = DRUGMATRIX: GABAA, Muscimol, Central radioligand binding (ligand: [3H] Muscimol); format: cell membranes, Rattus norvegicus, Wistar, Brain, Membrane; conditions: Not Active = under 50% inhibition at 10 µM
[3] = DRUGMATRIX: Glutamate, Kainate radioligand binding (ligand: [3H] Kainic acid); format: cell membranes, Rattus norvegicus, Wistar, Brain, Membrane; conditions: Not Active = under 50% inhibition at 10 µM
[4] = DRUGMATRIX: Glutamate, NMDA, Phencyclidine radioligand binding (ligand: [3H] TCP); format: cell membranes, Rattus norvegicus, Wistar, Cerebral cortex, Membrane; conditions: Not Active = under 50% inhibition at 10 µM
[5] = biological target: T1, Cysteinyl leukotriene receptor 1 (Homo sapiens, UniProt Q9Y271); format: cell membranes, CHO-K1, Membrane; conditions: cho-k1; also: in other assays of this panel Not Active means under 50% inhibition at 10 µM
T1 sequence (Q9Y271 whole entry): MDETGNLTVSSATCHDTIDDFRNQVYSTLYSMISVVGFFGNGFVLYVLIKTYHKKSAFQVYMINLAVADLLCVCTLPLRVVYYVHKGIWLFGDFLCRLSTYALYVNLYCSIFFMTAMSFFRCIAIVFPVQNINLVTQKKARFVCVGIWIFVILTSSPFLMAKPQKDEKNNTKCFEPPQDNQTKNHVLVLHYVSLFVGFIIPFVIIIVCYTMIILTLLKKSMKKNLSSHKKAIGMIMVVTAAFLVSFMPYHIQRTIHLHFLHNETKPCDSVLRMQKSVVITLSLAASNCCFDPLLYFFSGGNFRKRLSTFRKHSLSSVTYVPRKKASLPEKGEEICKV

[6] = biological target: cGMP-specific 3',5'-cyclic phosphodiesterase (Homo sapiens, UniProt O76074); experiment: DRUGMATRIX: Phosphodiesterase PDE5 enzyme inhibition (substrate: [3H]cGMP + cGMP); format: tissue-based; conditions: platelet; Not Active = under 50% inhibition at 10 µM
[7] = biological target: Mitogen-activated protein kinase 1 (Homo sapiens, UniProt P28482); experiment: DRUGMATRIX: Protein Serine/Threonine Kinase, ERK2 enzyme inhibition (substrate: Myelin Basic Protein); parameters: species or system Escherichia coli; conditions: Not Active = under 50% inhibition at 10 µM
Cytochrome P450 2D6 = Cytochrome P450 2D6 (Homo sapiens, UniProt P10635); conditions: bti-tn-5b1-4; also: in other assays of this panel Not Active means under 50% inhibition at 10 µM
Sequence of Cytochrome P450 2D6 (P10635 whole entry): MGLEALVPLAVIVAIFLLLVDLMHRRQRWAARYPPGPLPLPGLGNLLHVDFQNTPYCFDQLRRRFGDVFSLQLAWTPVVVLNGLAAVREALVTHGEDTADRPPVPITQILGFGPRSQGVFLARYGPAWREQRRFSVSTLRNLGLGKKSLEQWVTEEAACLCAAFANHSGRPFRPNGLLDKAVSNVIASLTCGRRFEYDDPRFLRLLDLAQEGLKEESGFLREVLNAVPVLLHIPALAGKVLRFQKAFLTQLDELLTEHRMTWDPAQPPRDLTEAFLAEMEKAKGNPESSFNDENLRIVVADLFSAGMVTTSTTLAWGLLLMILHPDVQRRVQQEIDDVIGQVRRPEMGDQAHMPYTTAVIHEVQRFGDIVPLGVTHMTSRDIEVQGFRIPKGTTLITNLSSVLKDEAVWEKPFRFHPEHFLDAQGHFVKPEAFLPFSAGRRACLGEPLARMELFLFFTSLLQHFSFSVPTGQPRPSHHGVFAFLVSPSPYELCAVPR

Sequence of Mitogen-activated protein kinase 1 (P28482 whole entry): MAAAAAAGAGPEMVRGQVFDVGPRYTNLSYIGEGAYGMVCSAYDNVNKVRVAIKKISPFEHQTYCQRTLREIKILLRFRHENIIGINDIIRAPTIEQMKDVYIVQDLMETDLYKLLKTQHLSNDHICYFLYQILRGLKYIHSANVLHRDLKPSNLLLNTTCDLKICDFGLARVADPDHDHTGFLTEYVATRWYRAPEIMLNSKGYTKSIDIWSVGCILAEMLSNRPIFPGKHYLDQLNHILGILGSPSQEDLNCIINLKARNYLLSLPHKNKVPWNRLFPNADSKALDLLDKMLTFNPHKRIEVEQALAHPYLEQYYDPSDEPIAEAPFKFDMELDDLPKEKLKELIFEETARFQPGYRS

| Molecule | IC50 [1] | Ki [1] | IC50 [2] | Ki [2] | IC50 [3] | Ki [3] | IC50 [4] | Ki [4] | IC50 [5] | IC50 [6] | IC50 [7] | IC50 (Cytochrome P450 2D6) | Ki (Cytochrome P450 2D6) | IC50 ([7]; read-out: IC50) [nM] | Ki [5] | Ki [6] | Ki [7] |
| --- | --- | --- | --- | --- | --- | --- | --- | --- | --- | --- | --- | --- | --- | --- | --- | --- | --- |
| Cc1ncc([N+](=O)[O-])n1CCO [METRONIDAZOLE] | Not Active | Not Active | Not Active | Not Active | Not Active | Not Active | Not Active | Not Active | Not Active | Not Active | Not Active | Not Active | Not Active |  |  |  |  |
| CC(C)(C(=O)c1cccnc1)c1cccnc1 [METYRAPONE] | Not Active | Not Active | Not Active | Not Active | Not Active | Not Active | Not Active | Not Active | Not Active | Not Active | Not Active | Not Active | Not Active |  |  |  |  |
| Oc1ccc(OCc2ccccc2)cc1 [MONOBENZONE] | Not Active | Not Active | Not Active | Not Active | Not Active | Not Active | Not Active | Not Active | Not Active | Not Active | Not Active | Not Active | Not Active |  |  |  |  |
| CC(C)(Oc1ccc(C2CCCc3ccccc32)cc1)C(=O)O (stereo not given) [NAFENOPIN] | Not Active | Not Active | Not Active | Not Active | Not Active | Not Active | Not Active | Not Active | Not Active | Not Active |  | Not Active | Not Active | 815 |  |  |  |
| CC(C)[C@H]1CC[C@H](C(=O)N[C@H](Cc2ccccc2)C(=O)O)CC1 [NATEGLINIDE] | Not Active | Not Active | Not Active | Not Active | Not Active | Not Active | Not Active | Not Active | Not Active | Not Active | Not Active | Not Active | Not Active |  |  |  |  |
| CCN[C@@H]1C[C@H](N)[C@@H](O[C@H]2OC(CN)=CC[C@H]2N)[C@H](O)[C@H]1O[C@H]1OC[C@](C)(O)[C@H](NC)[C@H]1O [NETILMICIN] | Not Active | Not Active | Not Active | Not Active | Not Active | Not Active | Not Active | Not Active | Not Active | Not Active | Not Active | Not Active | Not Active |  |  |  |  |
| CCOC(=O)C1=C(C)NC(C)=C(C(=O)OC)C1c1cccc([N+](=O)[O-])c1 (stereo not given) [NITRENDIPINE] | Not Active | Not Active | Not Active | Not Active | Not Active | Not Active | Not Active | Not Active | Not Active | Not Active | Not Active | Not Active | Not Active |  |  |  |  |
| C#C[C@]1(OC(C)=O)CC[C@H]2[C@@H]3CCC4=CC(=O)CC[C@@H]4[C@H]3CC[C@@]21C [NORETHINDRONE ACETATE] | Not Active | Not Active | Not Active | Not Active | Not Active | Not Active | Not Active | Not Active | Not Active | Not Active | Not Active | Not Active | Not Active |  |  |  |  |
| COc1ccc2[nH]c([S+]([O-])Cc3ncc(C)c(OC)c3C)nc2c1 (stereo not given) [OMEPRAZOLE] | Not Active | Not Active | Not Active | Not Active | Not Active | Not Active | Not Active | Not Active | Not Active | Not Active | Not Active | Not Active | Not Active |  |  |  |  |
| Cc1nccn1CC1CCc2c(c3ccccc3n2C)C1=O (stereo not given) [ONDANSETRON] | Not Active | Not Active | Not Active | Not Active | Not Active | Not Active | Not Active | Not Active | Not Active | Not Active | Not Active | Not Active | Not Active |  |  |  |  |
| CCCCOc1ccc(OCCCN2CCOCC2)cc1 [PRAMOXINE] | Not Active | Not Active | Not Active | Not Active | Not Active | Not Active | Not Active | Not Active | Not Active | Not Active | Not Active | Not Active | Not Active |  |  |  |  |
| O=C(C1CCCCC1)N1CC(=O)N2CCc3ccccc3C2C1 (stereo not given) [PRAZIQUANTEL] | Not Active | Not Active | Not Active | Not Active | Not Active | Not Active | Not Active | Not Active | Not Active | Not Active | Not Active | Not Active | Not Active |  |  |  |  |
| CCN(CC)CCOC(=O)c1ccc(N)cc1 [PROCAINE] | Not Active | Not Active | Not Active | Not Active | Not Active | Not Active | Not Active | Not Active | Not Active | Not Active | Not Active | Not Active | Not Active |  |  |  |  |
| CCCN(CCC)C(=O)C(CCC(=O)O)NC(=O)c1ccccc1 (stereo not given) [PROGLUMIDE] | Not Active | Not Active | Not Active | Not Active | Not Active | Not Active | Not Active | Not Active | Not Active | Not Active | Not Active | Not Active | Not Active |  |  |  |  |
| NC(=O)c1cnccn1 [PYRAZINAMIDE] | Not Active | Not Active | Not Active | Not Active | Not Active | Not Active | Not Active | Not Active | Not Active | Not Active | Not Active | Not Active | Not Active |  |  |  |  |
| Cc1cc2cc3c(C)cc(=O)oc3c(C)c2o1 [TRIOXSALEN] | Not Active | Not Active | Not Active | Not Active | Not Active | Not Active | Not Active | Not Active | Not Active | Not Active | Not Active | Not Active | Not Active |  |  |  |  |
| CCCC(CCC)C(=O)O [VALPROIC ACID] | Not Active | Not Active | Not Active | Not Active | Not Active | Not Active | Not Active | Not Active | Not Active | Not Active | Not Active | Not Active | Not Active |  |  |  |  |
| CCC1=C[C@@H]2CN(C1)Cc1c([nH]c3ccccc13)[C@@](C(=O)OC)(c1cc3c(cc1OC)N(C)[C@H]1[C@@](O)(C(=O)OC)[C@H](OC(C)=O)[C@]4(CC)C=CCN5CC[C@]31[C@@H]54)C2 [VINORELBINE] | Not Active | Not Active | Not Active | Not Active | Not Active | Not Active | Not Active | Not Active | Not Active | Not Active | Not Active | Not Active | Not Active |  |  |  |  |
| CADMIUM DICHLORIDE | Not Active | Not Active | Not Active | Not Active | Not Active | Not Active | Not Active | Not Active | Not Active | Not Active | Not Active | Not Active | Not Active |  | Not Active | Not Active | Not Active |
